Source: PubChem BioAssay (NCI)
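Assay format: 96-well plates, 48-hour exposure. Definition used: TGI = concentration required for complete inhibition of growth.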

Key:
Assay in all cases: growth of human tumour cells (NCI), 48 h
786-0 renal = tested on: 786-0 renal
A498 renal = tested on: A498 renal
A549 NSCLC = tested on: A549 NSCLC
ACHN renal = tested on: ACHN renal
CAKI-1 renal = tested on: CAKI-1 renal
CCRF-CEM leukemia = tested on: CCRF-CEM leukemia
COLO 205 colon = tested on: COLO 205 colon
DU-145 prostate = tested on: DU-145 prostate
EKVX NSCLC = tested on: EKVX NSCLC
HCC-2998 colon = tested on: HCC-2998 colon
HCT-116 colon = tested on: HCT-116 colon
HCT-15 colon = tested on: HCT-15 colon
HL-60(TB) leukemia = tested on: HL-60(TB) leukemia
HOP-62 NSCLC = tested on: HOP-62 NSCLC
HOP-92 NSCLC = tested on: HOP-92 NSCLC
HS 578T breast = tested on: HS 578T breast
HT29 colon = tested on: HT29 colon
IGROV1 ovarian = tested on: IGROV1 ovarian
K-562 leukemia = tested on: K-562 leukemia
KM12 colon = tested on: KM12 colon
LOX IMVI melanoma = tested on: LOX IMVI melanoma
M14 melanoma = tested on: M14 melanoma
MALME-3M melanoma = tested on: MALME-3M melanoma
MCF7 breast = tested on: MCF7 breast
MDA-MB-231 breast = tested on: MDA-MB-231 breast
MDA-MB-435 = tested on: MDA-MB-435
MDA-N = tested on: MDA-N
MOLT-4 leukemia = tested on: MOLT-4 leukemia
NCI-H226 lung = tested on: NCI-H226 lung
NCI-H23 lung = tested on: NCI-H23 lung
NCI-H460 lung = tested on: NCI-H460 lung
NCI-H522 lung = tested on: NCI-H522 lung
NCI/ADR-RES ovarian = tested on: NCI/ADR-RES ovarian
OVCAR-3 ovarian = tested on: OVCAR-3 ovarian
OVCAR-4 ovarian = tested on: OVCAR-4 ovarian
OVCAR-5 ovarian = tested on: OVCAR-5 ovarian
OVCAR-8 ovarian = tested on: OVCAR-8 ovarian
PC-3 prostate = tested on: PC-3 prostate
RPMI-8226 leukemia = tested on: RPMI-8226 leukemia
RXF 393 renal = tested on: RXF 393 renal
SF-268 CNS = tested on: SF-268 CNS
SF-295 CNS = tested on: SF-295 CNS
SF-539 CNS = tested on: SF-539 CNS
SK-MEL-2 melanoma = tested on: SK-MEL-2 melanoma
SK-MEL-28 melanoma = tested on: SK-MEL-28 melanoma
SK-MEL-5 melanoma = tested on: SK-MEL-5 melanoma
SK-OV-3 ovarian = tested on: SK-OV-3 ovarian
SN12C renal = tested on: SN12C renal
SNB-19 CNS = tested on: SNB-19 CNS
SNB-75 CNS = tested on: SNB-75 CNS
SR leukemia = tested on: SR leukemia
SW-620 colon = tested on: SW-620 colon
T-47D breast = tested on: T-47D breast
TK-10 renal = tested on: TK-10 renal
U251 CNS = tested on: U251 CNS
UACC-257 melanoma = tested on: UACC-257 melanoma
UACC-62 melanoma = tested on: UACC-62 melanoma
UO-31 renal = tested on: UO-31 renal
BT-549 breast = tested on: BT-549 breast

With `COc1ccc2c(c1)c1c3c(ccc4ncn2c43)N(CCN(C)C)CCN=1` the TGI (786-0 renal) was 1300 nM, the TGI (A498 renal) was 2770 nM and the TGI (A549 NSCLC) was 2040 nM. The TGI (ACHN renal) was 5390 nM, the TGI (CAKI-1 renal) was 9130 nM and the TGI (CCRF-CEM leukemia) was 1090 nM. For the same molecule, the TGI (COLO 205 colon) was 1830 nM, the TGI (DU-145 prostate) was 5200 nM and the TGI (EKVX NSCLC) was 2710 nM. For the same molecule, the TGI (HCC-2998 colon) was 1350 nM, the TGI (HCT-116 colon) was 1520 nM and the TGI (HCT-15 colon) was 1310 nM. The TGI (HL-60(TB) leukemia) was 1100 nM, the TGI (HOP-62 NSCLC) was 1730 nM and the TGI (HOP-92 NSCLC) was 4070 nM. The TGI (HS 578T breast) was 3160 nM, the TGI (HT29 colon) was 1580 nM and the TGI (IGROV1 ovarian) was 4370 nM. For the same molecule, the TGI (K-562 leukemia) was 705 nM, the TGI (KM12 colon) was 1700 nM and the TGI (LOX IMVI melanoma) was 1530 nM. It also gave a TGI (M14 melanoma) of 2410 nM, a TGI (MALME-3M melanoma) of 2670 nM and a TGI (MCF7 breast) of 1910 nM. For the same molecule, the TGI (MDA-MB-231 breast) was 1760 nM, the TGI (MDA-MB-435) was 1760 nM and the TGI (MDA-N) was 1590 nM. The TGI (MOLT-4 leukemia) was 1500 nM, the TGI (NCI-H226 lung) was 2890 nM and the TGI (NCI-H23 lung) was 3590 nM. For the same molecule, the TGI (NCI-H460 lung) was 760 nM, the TGI (NCI-H522 lung) was 806 nM and the TGI (NCI/ADR-RES ovarian) was 1960 nM. For the same molecule, the TGI (OVCAR-3 ovarian) was 2400 nM, the TGI (OVCAR-4 ovarian) was 1160 nM and the TGI (OVCAR-5 ovarian) was 2830 nM. It also gave a TGI (OVCAR-8 ovarian) of 1560 nM, a TGI (PC-3 prostate) of 1620 nM and a TGI (RPMI-8226 leukemia) of 2480 nM. It also gave a TGI (RXF 393 renal) of 2850 nM, a TGI (SF-268 CNS) of 4240 nM and a TGI (SF-295 CNS) of 1620 nM. For the same molecule, the TGI (SF-539 CNS) was 1100 nM, the TGI (SK-MEL-2 melanoma) was 2320 nM and the TGI (SK-MEL-28 melanoma) was 2450 nM. It also gave a TGI (SK-MEL-5 melanoma) of 2310 nM, a TGI (SK-OV-3 ovarian) of 4040 nM and a TGI (SN12C renal) of 1260 nM. For the same molecule, the TGI (SNB-19 CNS) was 1960 nM, the TGI (SNB-75 CNS) was 2260 nM and the TGI (SR leukemia) was 209 nM. The TGI (SW-620 colon) was 2130 nM, the TGI (T-47D breast) was 6050 nM and the TGI (TK-10 renal) was 5730 nM. It also gave a TGI (U251 CNS) of 1410 nM, a TGI (UACC-257 melanoma) of 3660 nM and a TGI (UACC-62 melanoma) of 1780 nM. The TGI (UO-31 renal) was 1740 nM.
In the case of `CC(C)(C)OC(=O)N/N=C(/N)c1ccccc1`, the TGI (786-0 renal) is reported as over 100000 nM, the TGI (A549 NSCLC) is reported as over 100000 nM and the TGI (ACHN renal) is reported as over 100000 nM. For the same molecule, the TGI (BT-549 breast) was over 100000 nM, the TGI (CAKI-1 renal) was over 100000 nM and the TGI (CCRF-CEM leukemia) was over 100000 nM. It also gave a TGI (COLO 205 colon) of over 100000 nM, a TGI (DU-145 prostate) of over 100000 nM and a TGI (EKVX NSCLC) of over 100000 nM. It also gave a TGI (HCC-2998 colon) of over 100000 nM, a TGI (HCT-116 colon) of over 100000 nM and a TGI (HCT-15 colon) of over 100000 nM. The TGI (HL-60(TB) leukemia) was over 100000 nM, the TGI (HOP-62 NSCLC) was over 100000 nM and the TGI (HT29 colon) was over 100000 nM. The TGI (IGROV1 ovarian) was over 100000 nM, the TGI (K-562 leukemia) was over 100000 nM and the TGI (KM12 colon) was over 100000 nM. It also gave a TGI (LOX IMVI melanoma) of over 100000 nM, a TGI (M14 melanoma) of over 100000 nM and a TGI (MALME-3M melanoma) of over 100000 nM. For the same molecule, the TGI (MCF7 breast) was over 100000 nM, the TGI (MDA-MB-231 breast) was over 100000 nM and the TGI (MDA-MB-435) was over 100000 nM. For the same molecule, the TGI (MDA-N) was over 100000 nM, the TGI (MOLT-4 leukemia) was over 100000 nM and the TGI (NCI-H226 lung) was over 100000 nM. The TGI (NCI-H23 lung) was over 100000 nM, the TGI (NCI-H460 lung) was over 100000 nM and the TGI (NCI-H522 lung) was over 100000 nM. The TGI (NCI/ADR-RES ovarian) was over 100000 nM, the TGI (OVCAR-3 ovarian) was over 100000 nM and the TGI (OVCAR-4 ovarian) was over 100000 nM. It also gave a TGI (OVCAR-5 ovarian) of over 100000 nM, a TGI (OVCAR-8 ovarian) of over 100000 nM and a TGI (PC-3 prostate) of over 100000 nM. The TGI (RPMI-8226 leukemia) was over 100000 nM, the TGI (RXF 393 renal) was over 100000 nM and the TGI (SF-268 CNS) was over 100000 nM. The TGI (SF-295 CNS) was over 100000 nM, the TGI (SF-539 CNS) was over 100000 nM and the TGI (SK-MEL-2 melanoma) was over 100000 nM. It also gave a TGI (SK-MEL-28 melanoma) of over 100000 nM, a TGI (SK-MEL-5 melanoma) of over 100000 nM and a TGI (SK-OV-3 ovarian) of over 100000 nM. It also gave a TGI (SN12C renal) of over 100000 nM, a TGI (SNB-19 CNS) of over 100000 nM and a TGI (SNB-75 CNS) of over 100000 nM. It also gave a TGI (T-47D breast) of over 100000 nM, a TGI (TK-10 renal) of over 100000 nM and a TGI (U251 CNS) of over 100000 nM. It also gave a TGI (UACC-257 melanoma) of over 100000 nM, a TGI (UACC-62 melanoma) of over 100000 nM and a TGI (UO-31 renal) of over 100000 nM.
